Test results reported in ChEMBL document CHEMBL1201862, “PubChem BioAssay data set” (2004).
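Tested at 5 concentrations; 48 h exposure; 96-well plates; endpoints linearly interpolated, else capped at highest concentration. At the GI50, growth is halved.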 The source made the active and inactive calls. No stated cut-off is given here; in the data, active = GI50 up to about 1.1 µM and inactive = higher.

Columns and labels:
Assay in all cases: NCI-60 cell line screen, 48 h
MDA-N = tested on: MDA-N
SK-MEL-2 = tested on: SK-MEL-2
A549 = tested on: A549
OVCAR-3 = tested on: OVCAR-3
NCI-H522 = tested on: NCI-H522
SF-539 = tested on: SF-539
NCI-H23 = tested on: NCI-H23
CAKI-1 = tested on: CAKI-1
UACC-257 = tested on: UACC-257
HCT-116 = tested on: HCT-116
PC-3 = tested on: PC-3
MDA-MB-231 = tested on: MDA-MB-231
UACC-62 = tested on: UACC-62
SN12C = tested on: SN12C
SF-295 = tested on: SF-295
Hs-578T = tested on: Hs-578T
NCI-H226 = tested on: NCI-H226
NCI-H460 = tested on: NCI-H460
SF-268 = tested on: SF-268
MDA-MB-435 = tested on: MDA-MB-435
HOP-92 = tested on: HOP-92
UO-31 = tested on: UO-31
EKVX = tested on: EKVX
MCF7 = tested on: MCF7
HCT-15 = tested on: HCT-15
RPMI-8226 = tested on: RPMI-8226
U-251 = tested on: U-251
M14 = tested on: M14
SK-MEL-5 = tested on: SK-MEL-5
KM12 = tested on: KM12
SK-OV-3 = tested on: SK-OV-3
A498 = tested on: A498
NCI/ADR-RES = tested on: NCI/ADR-RES
786-0 = tested on: 786-0
SNB-19 = tested on: SNB-19
HT-29 = tested on: HT-29
K562 = tested on: K562
BT-549 = tested on: BT-549
SK-MEL-28 = tested on: SK-MEL-28
LOX IMVI = tested on: LOX IMVI
SNB-75 = tested on: SNB-75
COLO 205 = tested on: COLO 205
DU-145 = tested on: DU-145
HCC 2998 = tested on: HCC 2998
OVCAR-5 = tested on: OVCAR-5
TK-10 = tested on: TK-10
ACHN = tested on: ACHN
IGROV-1 = tested on: IGROV-1
RXF 393 = tested on: RXF 393
HOP-62 = tested on: HOP-62
OVCAR-8 = tested on: OVCAR-8
OVCAR-4 = tested on: OVCAR-4
SW-620 = tested on: SW-620
T47D = tested on: T47D
SR = tested on: SR
HL-60 = tested on: HL-60
Malme-3M = tested on: Malme-3M
MOLT-4 = tested on: MOLT-4
CCRF-CEM = tested on: CCRF-CEM

For `C1CCSCCCCSCCCCSCCCCSC1`, the GI50 (MDA-N) was > 100 µM (inactive), the GI50 (SK-MEL-2) was > 100 µM (inactive) and the GI50 (A549) was > 100 µM (inactive). For the same compound, the GI50 (OVCAR-3) was > 100 µM (inactive), the GI50 (NCI-H522) was > 100 µM (inactive) and the GI50 (SF-539) was > 100 µM (inactive). The GI50 (NCI-H23) was > 100 µM (inactive), the GI50 (CAKI-1) was > 100 µM (inactive) and the GI50 (UACC-257) was > 100 µM (inactive). The GI50 (HCT-116) was > 100 µM (inactive), the GI50 (PC-3) was > 100 µM (inactive) and the GI50 (MDA-MB-231) was > 100 µM (inactive). For the same compound, the GI50 (UACC-62) was > 100 µM (inactive), the GI50 (SN12C) was > 100 µM (inactive) and the GI50 (SF-295) was > 100 µM (inactive). For the same compound, the GI50 (Hs-578T) was > 100 µM (inactive), the GI50 (NCI-H226) was > 100 µM (inactive) and the GI50 (NCI-H460) was > 100 µM (inactive). The GI50 (SF-268) was > 100 µM (inactive), the GI50 (MDA-MB-435) was > 100 µM (inactive) and the GI50 (HOP-92) was > 100 µM (inactive). The GI50 (UO-31) was > 100 µM (inactive), the GI50 (EKVX) was > 100 µM (inactive) and the GI50 (MCF7) was > 100 µM (inactive). For the same compound, the GI50 (HCT-15) was over 100 µM, the GI50 (RPMI-8226) was > 100 µM (inactive) and the GI50 (U-251) was > 100 µM (inactive). The GI50 (M14) was > 100 µM (inactive), the GI50 (SK-MEL-5) was > 100 µM (inactive) and the GI50 (KM12) was > 100 µM (inactive). For the same compound, the GI50 (SK-OV-3) was > 100 µM (inactive), the GI50 (A498) was > 100 µM (inactive) and the GI50 (NCI/ADR-RES) was > 100 µM (inactive). The GI50 (786-0) was > 100 µM (inactive), the GI50 (SNB-19) was > 100 µM (inactive) and the GI50 (HT-29) was > 100 µM (inactive). For the same compound, the GI50 (K562) was > 100 µM (inactive), the GI50 (BT-549) was > 100 µM (inactive) and the GI50 (SK-MEL-28) was > 100 µM (inactive). The GI50 (LOX IMVI) was > 100 µM (inactive), the GI50 (SNB-75) was 64 µM (inactive) and the GI50 (COLO 205) was > 100 µM (inactive). The GI50 (DU-145) was > 100 µM (inactive), the GI50 (HCC 2998) was > 100 µM (inactive) and the GI50 (OVCAR-5) was > 100 µM (inactive). For the same compound, the GI50 (TK-10) was > 100 µM (inactive), the GI50 (ACHN) was > 100 µM (inactive) and the GI50 (IGROV-1) was > 100 µM (inactive). For the same compound, the GI50 (RXF 393) was > 100 µM (inactive), the GI50 (HOP-62) was > 100 µM (inactive) and the GI50 (OVCAR-8) was > 100 µM (inactive). The GI50 (OVCAR-4) was > 100 µM (inactive), the GI50 (SW-620) was > 100 µM (inactive) and the GI50 (T47D) was > 100 µM (inactive).

`Cc1cc2ncn(C3CCCO3)c2cc1C` (stereo unspecified) was tested, and the GI50 (MDA-N) was > 100 µM (inactive), the GI50 (SK-MEL-2) was > 100 µM (inactive) and the GI50 (A549) was > 100 µM (inactive). The GI50 (OVCAR-3) was > 100 µM (inactive), the GI50 (NCI-H522) was 12.1 µM (inactive) and the GI50 (SR) was > 100 µM (inactive). The GI50 (SF-539) was > 100 µM (inactive), the GI50 (NCI-H23) was > 100 µM (inactive) and the GI50 (CAKI-1) was > 100 µM (inactive). For the same compound, the GI50 (UACC-257) was > 100 µM (inactive), the GI50 (HCT-116) was > 100 µM (inactive) and the GI50 (PC-3) was > 100 µM (inactive). The GI50 (MDA-MB-231) was > 100 µM (inactive), the GI50 (UACC-62) was > 100 µM (inactive) and the GI50 (SN12C) was > 100 µM (inactive). The GI50 (HL-60) was > 100 µM (inactive), the GI50 (SF-295) was > 100 µM (inactive) and the GI50 (Malme-3M) was > 100 µM (inactive). For the same compound, the GI50 (Hs-578T) was > 100 µM (inactive), the GI50 (NCI-H226) was > 100 µM (inactive) and the GI50 (SF-268) was > 100 µM (inactive). The GI50 (MDA-MB-435) was > 100 µM (inactive), the GI50 (HOP-92) was > 100 µM (inactive) and the GI50 (UO-31) was 28.3 µM (inactive). The GI50 (EKVX) was > 100 µM (inactive), the GI50 (MCF7) was > 100 µM (inactive) and the GI50 (HCT-15) was over 100 µM. For the same compound, the GI50 (RPMI-8226) was > 100 µM (inactive), the GI50 (U-251) was > 100 µM (inactive) and the GI50 (M14) was > 100 µM (inactive). The GI50 (SK-MEL-5) was > 100 µM (inactive), the GI50 (KM12) was 74.5 µM (inactive) and the GI50 (SK-OV-3) was > 100 µM (inactive). For the same compound, the GI50 (NCI/ADR-RES) was > 100 µM (inactive), the GI50 (786-0) was > 100 µM (inactive) and the GI50 (SNB-19) was > 100 µM (inactive). The GI50 (HT-29) was > 100 µM (inactive), the GI50 (K562) was > 100 µM (inactive) and the GI50 (BT-549) was > 100 µM (inactive). The GI50 (SK-MEL-28) was > 100 µM (inactive), the GI50 (LOX IMVI) was > 100 µM (inactive) and the GI50 (SNB-75) was 71.6 µM (inactive). For the same compound, the GI50 (COLO 205) was > 100 µM (inactive), the GI50 (MOLT-4) was > 100 µM (inactive) and the GI50 (DU-145) was > 100 µM (inactive). For the same compound, the GI50 (HCC 2998) was > 100 µM (inactive), the GI50 (OVCAR-5) was > 100 µM (inactive) and the GI50 (TK-10) was > 100 µM (inactive). The GI50 (ACHN) was > 100 µM (inactive), the GI50 (IGROV-1) was > 100 µM (inactive) and the GI50 (RXF 393) was > 100 µM (inactive). For the same compound, the GI50 (HOP-62) was > 100 µM (inactive), the GI50 (OVCAR-8) was > 100 µM (inactive) and the GI50 (OVCAR-4) was > 100 µM (inactive). The GI50 (SW-620) was > 100 µM (inactive), the GI50 (CCRF-CEM) was > 100 µM (inactive) and the GI50 (T47D) was > 100 µM (inactive).

In the case of `O=c1/c(=C/c2ccc(-c3ccc(Cl)cc3Cl)o2)sc2n1[C@@H](c1ccc3c(c1)OCO3)C=C(c1cc(F)c(Cl)cc1Cl)N=2`, the GI50 (MDA-N) is reported as 37.8 µM (inactive), the GI50 (SK-MEL-2) is reported as 26 µM (inactive) and the GI50 (A549) is reported as 46.1 µM (inactive). The GI50 (NCI-H522) was 49.1 µM (inactive), the GI50 (SF-539) was 35.3 µM (inactive) and the GI50 (NCI-H23) was 38.5 µM (inactive). For the same compound, the GI50 (CAKI-1) was > 100 µM (inactive), the GI50 (UACC-257) was 22.6 µM (inactive) and the GI50 (HCT-116) was 35.4 µM (inactive). For the same compound, the GI50 (PC-3) was 69 µM (inactive), the GI50 (MDA-MB-231) was 22.6 µM (inactive) and the GI50 (UACC-62) was 16 µM (inactive). The GI50 (SN12C) was 57.3 µM (inactive), the GI50 (HL-60) was 27.2 µM (inactive) and the GI50 (SF-295) was 40.7 µM (inactive). The GI50 (Malme-3M) was > 100 µM (inactive), the GI50 (Hs-578T) was 14 µM (inactive) and the GI50 (NCI-H226) was 20.7 µM (inactive). For the same compound, the GI50 (NCI-H460) was 37 µM (inactive), the GI50 (SF-268) was 46.3 µM (inactive) and the GI50 (MDA-MB-435) was 33.2 µM (inactive). The GI50 (HOP-92) was 31.1 µM (inactive), the GI50 (UO-31) was 31.7 µM (inactive) and the GI50 (MCF7) was 26 µM (inactive). For the same compound, the GI50 (HCT-15) was 34.1 µM, the GI50 (RPMI-8226) was 26.1 µM (inactive) and the GI50 (U-251) was 29.4 µM (inactive). The GI50 (M14) was 28 µM (inactive), the GI50 (SK-MEL-5) was 28.5 µM (inactive) and the GI50 (KM12) was 57.5 µM (inactive). For the same compound, the GI50 (SK-OV-3) was 21.5 µM (inactive), the GI50 (A498) was 2.26 µM (inactive) and the GI50 (NCI/ADR-RES) was 45.9 µM (inactive). For the same compound, the GI50 (786-0) was 42.9 µM (inactive), the GI50 (SNB-19) was 28.8 µM (inactive) and the GI50 (HT-29) was 25.6 µM (inactive). The GI50 (K562) was 35.2 µM (inactive), the GI50 (BT-549) was 37.8 µM (inactive) and the GI50 (SK-MEL-28) was 91.8 µM (inactive). The GI50 (LOX IMVI) was 34.8 µM (inactive), the GI50 (SNB-75) was > 100 µM (inactive) and the GI50 (COLO 205) was 38.7 µM (inactive). For the same compound, the GI50 (MOLT-4) was 28.2 µM (inactive), the GI50 (DU-145) was 63.7 µM (inactive) and the GI50 (OVCAR-5) was 58.7 µM (inactive). For the same compound, the GI50 (TK-10) was 7.78 µM (inactive), the GI50 (ACHN) was 69.2 µM (inactive) and the GI50 (IGROV-1) was 34.3 µM (inactive). The GI50 (RXF 393) was 39.4 µM (inactive), the GI50 (HOP-62) was 5.87 µM (inactive) and the GI50 (OVCAR-8) was 42 µM (inactive). The GI50 (OVCAR-4) was 33.3 µM (inactive), the GI50 (SW-620) was 35.8 µM (inactive) and the GI50 (CCRF-CEM) was 38.7 µM (inactive). The GI50 (T47D) was 21.1 µM (inactive).
